The test system of the experiment is HBV. Briefly: HepAD38 anti-HBV assay: reduction of viral product accumulation (virion DNA qPCR, HBsAg/HBeAg ELISA). The experiment is classed as cell-based. The note with it: Hepatitis B virus, 120 h; HepAD38 cells; concentration reducing viral product accumulation by 50% relative to no drug controls; harvest five days after compound addition; read-out: HepAD38 EC50. The method in brief: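 Tetracycline-free HepAD38 cells treated 5 days with compound (1:200 DMSO dilution), or 8 days with media and compound refreshed on d2 and d5. Virion DNA quantified by qPCR; HBsAg or HBeAg by ELISA. EC50 is the concentration reducing viral product accumulation 50% versus no-drug controls.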
For orientation: In qPCR the cycle at which signal appears reflects the starting amount.
Usually EC50 stands for the concentration giving half of the maximal effect. In the case of `O=C(N[C@H]1CC2=C(c3ccn(C(F)F)n3)[C@H](c3ccc(F)cc3Cl)N=C(c3nccs3)N2C1)c1cccc(C2CC2)n1` [Example 248], the EC50 was more than 400 nM.
The result for `O=C(N[C@H]1CC2=C(c3ccn(C(F)F)n3)[C@H](c3ccc(F)cc3Cl)N=C(c3nccs3)N2C1)C1CCC(O)CC1` (some centres unmarked) [Example 249] reads 100 to 400 nM; that for `O=C(N[C@H]1CC2=C(c3ccn(C(F)F)n3)[C@H](c3ccc(F)cc3Cl)N=C(c3nccs3)N2C1)C1CC(O)C1` (some centres unmarked) [Example 250], 100 to 400 nM.
Take `O=C(N[C@H]1CC2=C(c3ccn(C(F)F)n3)[C@H](c3ccc(F)cc3Cl)N=C(c3nccs3)N2C1)OC1CCCCC1` [Example 251]: the EC50 is less than 100 nM.
The result for `O=C(N[C@H]1CC2=C(c3ccn(C(F)F)n3)[C@H](c3ccc(F)cc3Cl)N=C(c3nccs3)N2C1)OC1CCCC1` [Example 252] reads more than 400 nM.
The result for `O=C(N[C@H]1CC2=C(c3ccn(C(F)F)n3)[C@H](c3ccc(F)cc3Cl)N=C(c3nccs3)N2C1)OC1CCC1` [Example 253] reads less than 100 nM; that for `O=C(N[C@H]1CC2=C(c3ccn(C(F)F)n3)[C@H](c3ccc(F)cc3Cl)N=C(c3nccs3)N2C1)O[C@H]1CC[C@H](O)CC1` [Example 254], less than 100 nM; that for `O=C(N[C@H]1CC2=C(c3ccn(C(F)F)n3)[C@H](c3ccc(F)cc3Cl)N=C(c3nccs3)N2C1)O[C@H]1C[C@H](O)C1` [Example 255], 100 to 400 nM.
Regarding `O=S(=O)(N[C@H]1CC2=C(c3ccn(C(F)F)n3)[C@H](c3ccc(F)cc3Cl)N=C(c3nccs3)N2C1)N1CCC(O)(c2cnc(C3CC3)s2)CC1` [Example 262], the EC50 is less than 100 nM.
The result for `O=C(N[C@H]1CC2=C(c3ccn(C(F)F)n3)[C@H](c3ccc(F)cc3Cl)N=C(c3nccs3)N2C1)c1ncc(-c2ccccn2)s1` [Example 263] reads 100 to 400 nM.
As to `C#CC1(O)CCN(S(=O)(=O)N[C@H]2CC3=C(c4ccn(C(F)F)n4)[C@H](c4ccc(F)cc4Cl)N=C(c4cccs4)N3C2)CC1` [Example 265], the concentration for a half-maximal effect (EC50) is less than 100 nM.
For `COCCN(C)S(=O)(=O)N(C)[C@H]1CC2=C(c3ccn(C(F)F)n3)[C@H](c3ccc(F)cc3Cl)N=C(c3nccs3)N2C1` [Example 268] the value was less than 100 nM; for `O=S(=O)(N[C@H]1CC2=C(c3ccn(C(F)F)n3)[C@H](c3ccc(F)cc3Cl)N=C(c3nccs3)N2C1)N1CC[C@H](F)C1` [Example 272], less than 100 nM.
`O=S(=O)(N[C@H]1CC2=C(c3ccn(C(F)F)n3)[C@H](c3ccc(F)cc3Cl)N=C(c3nccs3)N2C1)N1CCC(F)(F)CC1` [Example 277]: the concentration for a half-maximal effect (EC50) was less than 100 nM.
For `O=S(=O)(N[C@H]1CC2=C(c3ccn(C(F)F)n3)[C@H](c3ccc(F)cc3Cl)N=C(c3nccs3)N2C1)N1CCCC(F)(F)C1` [Example 278] the value was less than 100 nM; for `CC(=O)OCCCCS(=O)(=O)N[C@H]1CC2=C(c3ccn(C(F)F)n3)[C@H](c3ccc(F)cc3Cl)N=C(c3nccs3)N2C1` [Example 279], less than 100 nM.
For `O=S(=O)(N[C@H]1CC2=C(c3ccn(C(F)F)n3)[C@H](c3ccc(F)cc3Cl)N=C(c3nccs3)N2C1)N1CCC[C@H]1C(F)(F)F` [Example 281] the value was less than 100 nM; for `O=S(=O)(N[C@H]1CC2=C(c3ccn(C(F)F)n3)[C@H](c3ccc(F)cc3Cl)N=C(c3nccs3)N2C1)N1CCCC1c1cccnc1` (some centres unmarked) [Example 283], 100 to 400 nM.
The result for `CC(C)(O)[C@H]1CCCN1S(=O)(=O)N[C@H]1CC2=C(c3ccn(C(F)F)n3)[C@H](c3ccc(F)cc3Cl)N=C(c3nccs3)N2C1` [Example 284] reads less than 100 nM; that for `O=S(=O)(N[C@H]1CC2=C(c3ccn(C(F)F)n3)[C@H](c3ccc(F)cc3Cl)N=C(c3nccs3)N2C1)N1CCC2(CC2)C1` [Example 286], less than 100 nM; that for `O=S(=O)(N[C@H]1CC2=C(c3ccn(C(F)F)n3)[C@H](c3ccc(F)cc3Cl)N=C(c3nccs3)N2C1)N1CCCC1c1ccccn1` (some centres unmarked) [Example 288], less than 100 nM.
For the compound `CC1CCC(C)N1S(=O)(=O)N[C@H]1CC2=C(c3ccn(C(F)F)n3)[C@H](c3ccc(F)cc3Cl)N=C(c3nccs3)N2C1` (some centres unmarked) [Example 291], the EC50 is less than 100 nM.
As for `CC1(C)CCCN(S(=O)(=O)N[C@H]2CC3=C(c4ccn(C(F)F)n4)[C@H](c4ccc(F)cc4Cl)N=C(c4nccs4)N3C2)C1` [Example 292], the concentration for a half-maximal effect (EC50) is less than 100 nM.
In the case of `CC1(C)CCCCN1S(=O)(=O)N[C@H]1CC2=C(c3ccn(C(F)F)n3)[C@H](c3ccc(F)cc3Cl)N=C(c3nccs3)N2C1` [Example 295], the EC50 is less than 100 nM.
For `O=S(=O)(N[C@H]1CC2=C(c3ccn(C(F)F)n3)[C@H](c3ccc(F)cc3Cl)N=C(c3nccs3)N2C1)C1CC(OCc2ccccc2)C1` (some centres unmarked) [Example 296] the value was less than 100 nM; for `O=S(=O)(CCCC(O)c1ccccn1)N[C@H]1CC2=C(c3ccn(C(F)F)n3)[C@H](c3ccc(F)cc3Cl)N=C(c3nccs3)N2C1` (some centres unmarked) [Example 297], 100 to 400 nM; for `O=S(=O)(C[C@@H]1CC2=C(c3ccn(C(F)F)n3)[C@H](c3ccc(F)cc3Cl)N=C(c3nccs3)N2C1)N1CCCCC1` [Example 298], 100 to 400 nM.
The result for `C[C@@H]1CN(S(=O)(=O)N[C@H]2CC3=C(c4ccn(C(F)F)n4)[C@H](c4ccc(F)cc4Cl)N=C(c4nccs4)N3C2)C[C@@H]1C` [Example 299] reads less than 100 nM; that for `C[C@H]1CN(S(=O)(=O)N[C@H]2CC3=C(c4ccn(C(F)F)n4)[C@H](c4ccc(F)cc4Cl)N=C(c4nccs4)N3C2)C[C@@H]1C` [Example 300], less than 100 nM.
The result for `O=S(=O)(NCc1ccccc1)N[C@H]1CC2=C(c3ccn(C(F)F)n3)[C@H](c3ccc(F)cc3Cl)N=C(c3nccs3)N2C1` [Example 305] reads 100 to 400 nM.
In the case of `O=S(=O)(NCc1ccccn1)N[C@H]1CC2=C(c3ccn(C(F)F)n3)[C@H](c3ccc(F)cc3Cl)N=C(c3nccs3)N2C1` [Example 306], the EC50 lay within 100 to 400 nM.
For `O=S(=O)(NCc1nccs1)N[C@H]1CC2=C(c3ccn(C(F)F)n3)[C@H](c3ccc(F)cc3Cl)N=C(c3nccs3)N2C1` [Example 307] the value was less than 100 nM; for `O=S(=O)(NCC(O)c1ccccn1)N[C@H]1CC2=C(c3ccn(C(F)F)n3)[C@H](c3ccc(F)cc3Cl)N=C(c3nccs3)N2C1` (some centres unmarked) [Example 308], less than 100 nM.
`CC(=O)OCCCS(=O)(=O)N[C@H]1CC2=C(c3ccn(C(F)F)n3)[C@H](c3ccc(F)cc3Cl)N=C(c3nccs3)N2C1` [Example 310]: the concentration for a half-maximal effect (EC50) is less than 100 nM.
`CC(=O)OCCCS(=O)(=O)N([C@H]1CC2=C(c3ccn(C(F)F)n3)[C@H](c3ccc(F)cc3Cl)N=C(c3nccs3)N2C1)S(=O)(=O)CCCOC(C)=O` [Example 311]: the EC50 is less than 100 nM.
For `O=S(=O)(NCc1ncc[nH]1)N[C@H]1CC2=C(c3ccn(C(F)F)n3)[C@H](c3ccc(F)cc3Cl)N=C(c3nccs3)N2C1` [Example 314] the value was 100 to 400 nM; for `CC(C)(CNS(=O)(=O)N[C@H]1CC2=C(c3ccn(C(F)F)n3)[C@H](c3ccc(F)cc3Cl)N=C(c3nccs3)N2C1)c1ccccn1` [Example 315], 100 to 400 nM.
For `O=S(=O)(NCC1(c2ccccn2)CC1)N[C@H]1CC2=C(c3ccn(C(F)F)n3)[C@H](c3ccc(F)cc3Cl)N=C(c3nccs3)N2C1` [Example 316] the value was 100 to 400 nM; for `O=S(=O)(NCc1cnccn1)N[C@H]1CC2=C(c3ccn(C(F)F)n3)[C@H](c3ccc(F)cc3Cl)N=C(c3nccs3)N2C1` [Example 317], less than 100 nM; for `CC(C)(NS(=O)(=O)N[C@H]1CC2=C(c3ccn(C(F)F)n3)[C@H](c3ccc(F)cc3Cl)N=C(c3nccs3)N2C1)c1ccccn1` [Example 318], less than 100 nM.
For `CCCCS(=O)(=O)N[C@H]1CC2=C(c3ccn(C(F)F)n3)[C@H](c3ccc(F)cc3Cl)N=C(c3nccs3)N2C1` [Example 319] the value was less than 100 nM; for `O=S(=O)(Nc1ccccn1)N[C@H]1CC2=C(c3ccn(C(F)F)n3)[C@H](c3ccc(F)cc3Cl)N=C(c3nccs3)N2C1` [Example 320], 100 to 400 nM.
For the compound `O=S(=O)(N[C@H]1CC2=C(c3ccn(C(F)F)n3)[C@H](c3ccc(F)cc3Cl)N=C(c3nccs3)N2C1)NC1(c2ccccn2)CC1` [Example 321], the EC50 is less than 100 nM.
The result for `O=C(N[C@H]1CC2=C(c3ccn(C(F)F)n3)[C@H](c3ccc(F)cc3Cl)N=C(c3nccs3)N2C1)C1(c2ccccn2)CC1` [Example 322] reads 100 to 400 nM; that for `O=S(=O)(N[C@H]1CC2=C(c3ccn(C(F)F)n3)[C@H](c3ccc(F)cc3Cl)N=C(c3nccs3)N2C1)NC1(Cc2ccccn2)CC1` [Example 325], 100 to 400 nM; that for `O=C(Cc1ccccn1)N[C@H]1CC2=C(c3ccn(C(F)F)n3)[C@H](c3ccc(F)cc3Cl)N=C(c3nccs3)N2C1` [Example 326], 100 to 400 nM.
For `O=C(Nc1ccccn1)OCCCS(=O)(=O)N[C@H]1CC2=C(c3ccn(C(F)F)n3)[C@H](c3ccc(F)cc3Cl)N=C(c3nccs3)N2C1` [Example 327] the value was less than 100 nM; for `CS(=O)(=O)CCS(=O)(=O)N[C@H]1CC2=C(c3ccn(C(F)F)n3)[C@H](c3ccc(F)cc3Cl)N=C(c3nccs3)N2C1` [Example 328], less than 100 nM; for `CS(=O)(=O)CCCS(=O)(=O)N[C@H]1CC2=C(c3ccn(C(F)F)n3)[C@H](c3ccc(F)cc3Cl)N=C(c3nccs3)N2C1` [Example 329], less than 100 nM.
The result for `Fc1ccc([C@@H]2N=C(c3nccs3)N3C[C@@H](Nc4ccc(-c5ccccn5)cc4)CC3=C2c2ccn(C(F)F)n2)c(Cl)c1` [Example 330] reads 100 to 400 nM; that for `Fc1ccc([C@@H]2N=C(c3nccs3)N3C[C@@H](Nc4cccc(-c5ccccn5)c4)CC3=C2c2ccn(C(F)F)n2)c(Cl)c1` [Example 331], 100 to 400 nM; that for `O=Cc1cccc(S(=O)(=O)N[C@H]2CC3=C(c4ccn(C(F)F)n4)[C@H](c4ccc(F)cc4Cl)N=C(c4nccs4)N3C2)c1` [Example 333], less than 100 nM.
`O=S(=O)(NC(CO)c1ccccn1)N[C@H]1CC2=C(c3ccn(C(F)F)n3)[C@H](c3ccc(F)cc3Cl)N=C(c3nccs3)N2C1` (some centres unmarked) [Example 338]: the EC50 was less than 100 nM.

Values taken from patent US11472808B2, “Substituted pyrrolo[1,2-c]pyrimidines as hepatitis B antiviral agents” (Enanta Pharmaceuticals, Inc., priority 2019, dated 2022).
